Measured values: ChEMBL document CHEMBL1158014, “Calamistrins A and B, two new cytotoxic monotetrahydrofuran annonaceous acetogenins from Uvaria calamistrata” (J Nat Prod, 1999)
≈ marks a conversion by molar mass, not a printed value.

Columns and labels:
Type in all cases: functional, cell-based
[1] = tested on: KB; experiment: Cytotoxicity against human KB cells after 5 days by MTT assay; conditions: 120 h
[2] = tested on: A2780; experiment: Cytotoxicity against human A2780 cells after 5 days by MTT assay; conditions: A2780, 120 h
[3] = tested on: HCT-8; experiment: Cytotoxicity against human HCT8 cells after 5 days by MTT assay; conditions: HCT-8, 120 h

SMILES	IC50 [1] [µg/mL]	IC50 [2] [µg/mL]	IC50 [3] [µg/mL]
CCCCCCCCCCCC[C@H](O)[C@H]1CC[C@H]([C@@H](C[C@H](O)CCCCCCCCCCCCC2=C[C@H](C)OC2=O)OC(C)=O)O1 [CALAMISTRIN B]	6.1 (≈ 9.37 µM)	3.1 (≈ 4.76 µM)	0.022 (≈ 0.0338 µM)
CCCCCCCCCCCC[C@H](O)[C@H]1CC[C@H]([C@H](O)C[C@@H](O)CCCCCCCCCCCCC2=C[C@H](C)OC2=O)O1 [CALAMISTRIN A]	2 (≈ 3.28 µM)	1.4 (≈ 2.3 µM)	0.37 (≈ 0.608 µM)
